From patent publication US9611295B2, “Treatment of IL-17 mediated disease by blocking SEFIR-SEFIR interactions” (THE CLEVELAND CLINIC FOUNDATION, priority 2011, dated 2017) come the findings set out here.

The target of one assay is T1, IL-17RA SEFIR domain (Homo sapiens, UniProt Q96F46).
T1 construct: IL17RA-SEFIR, amino acid residues 351 to 616; 6xHis (N, cleaved yes); TEV recognition site (ENLYFQG) (N, cleaved yes); made in house
T1 sequence (Q96F46 351-616): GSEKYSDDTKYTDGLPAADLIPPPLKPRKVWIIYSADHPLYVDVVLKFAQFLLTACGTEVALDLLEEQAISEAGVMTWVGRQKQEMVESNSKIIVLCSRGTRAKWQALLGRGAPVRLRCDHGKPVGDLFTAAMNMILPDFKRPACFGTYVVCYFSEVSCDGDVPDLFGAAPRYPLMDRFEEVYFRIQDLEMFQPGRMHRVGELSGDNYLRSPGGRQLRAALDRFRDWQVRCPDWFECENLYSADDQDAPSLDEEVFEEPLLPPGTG
As to the kind of experiment: SPR binding of peptides to immobilized IL-17RA SEFIR domain. To be noted: sensor-immobilized IL-17RA SEFIR, Biacore 3000. The source says:
The Cins helix and the CC′ loop are distinct putative surface-exposed sequences in the SEFIR3 segment of Act1. To determine whether the Cins helix and the CC′ loop interacted with IL-17RA, surface plasmon resonance (SPR) was used to test peptides derived from Cins (SPKYKQDVEGAESQ) (SEQ ID NO: 19) and the CC′ loop (LDEDEHGLHTKY) (SEQ ID NO: 5) for their ability to bind to the IL-17RA SEFIR domain. As expected, the recombinant Act1 SEFIR domain bound to the sensor-immobilized SEFIR of IL-17RA.
Expression and purification of IL-17RA and mAct1-SEFIR proteins: The cDNA encoding a SEFIR domain-containing fragment of human IL17RA (IL17RA-SEFIR, amino acid residues 351 to 616) was subcloned into a modified pET-28 vector, with a N-terminal 6×His tag (SEQ ID NO: 18)and a tobacco etch virus protease (TEV) recognition site (ENLYFQG) (SEQ ID NO: 21 )). The IL17RA SEFIR domain was expressed and purified by double-Nickel-Nitrilotriacetic Acid (Ni-NTA) affinity methods as previously described. Deng et al., Acta Crystallogr D Biol Crystallogr 60:203-204 (2004). The His-tag was subsequently removed from the eluted fusion protein by rTEV, and IL17RA-SEFIR was further purified as flow-through material from a second subtracting Ni-NTA column. Size-exclusion chromatography on a superdex s200 HR high resolution column was used as a final step for purification. The cDNA encoding a SEFIR domain containing a fragment of mouse Act1 (mAct1-SEFIR, residues 391 to 537) was subcloned into a modified pET28b vector that expresses maltose-binding protein (MBP) with an N-terminal 6×His tag (SEQ ID NO: 18) and a C-terminal TEV recognition site. Recombinant mAct1-SEFIR was expressed and purified as previously described. Deng et al., Proc Natl Acad Sci USA 105:1499-1504 (2008). The His-tagged MBP moiety was cleaved from the fusion protein by rTEV after the first Ni-NTA column purification. Recombinant mAct1-SEFIR was subsequently collected as flow-through from a second subtracting Ni-NTA column.
SPR analysis: Binding of purified Act1 SEFIR domain or peptides to IL-17RA was conducted on a Biacore 3000. Purified IL-17RA SEFIR domain was immobilized on a CM5 sensor chip in 10 mM acetic acid (pH 4.5). Purified Act1 SEFIR domain or peptides were allowed to flow over the chip in a buffer of 10 mM Hepes (pH 7.4), 150 mM NaCl, and 0.005% surfactant P20. The chip was regenerated with 1 M NaCl. Binding KD values were determined by Biaevaluation software.
(SPR reads the build-up and loss of mass on a sensor chip optically.)

The subject of assay [1] is House Dust Mite (HDM)-induced Asthma. Nature of the assay: Murine model of House Dust Mite (HDM)-induced asthma. Type of assay: in vivo, mouse. The settings on record: day 6; about 100,000 cells/ml without peptide. Here is the method:
FIG. 11 provides a graph showing that the ASI peptide inhibits inflammation in a murine model of experimental House Dust Mite (HDM)-induced Asthma. The white blood cell count was about 100,000 cells/ml when IL-17 was used alone, but dropped to about 10,000 cells/ml when ASI peptide was used together with IL-17. […] Ears from C57B1/6 mice (n=3 for each group) were injected daily with PBS, IL-17 with or without ASI. On day 7, ears were collected for staining with H&E and real-time analysis of gene expression.

Assay [2] concerns IL-17-induced inflammation in mouse ear skin. As to the kind of experiment: IL-17-induced inflammation in mouse ear skin. Type of assay: in vivo. To be noted: C57B1/6 mice, daily injection. Here is the method:
Ears from C57B1/6 mice (n=3 for each group) were injected daily with PBS, IL-17 with or without ASI. On day 7, ears were collected for staining with H&E and real-time analysis of gene expression.

The subject of assay [3] is IL-25-dependent signaling. Nature of the assay: IL-25-dependent signaling in MEFs by Western blotting (pIκB, pJNK, pERK, pp38 MAPK). To be noted: MEFs expressing IL-17RB, peptides 200 μM, 24 hours. Type of assay: cell-based, mouse. Here is the method:
FIG. 4 provides data showing that a cell-permeable CC′ loop decoy peptide disrupts the interaction between Act1 and IL-17RA and inhibits IL-17R and IL-25R signaling. FIG. 4A provides sequences of Antennapedia homeodomain (Antp) (SEQ ID NO: 11)and decoy peptides (SEQ ID NOS 23-25 and 17, respectively, in order of appearance) with the Antp sequence underlined. FIG. 4B provides flow cytometry results based on experiments in which MEFs expressing IL-17RB were incubated for 2 or 24 hours with the indicated FITC-tagged peptides (200 μM) and were then analyzed by flow cytometry. […] The percentages of FITC-positive cells in the treated samples are shown. FIG. 4C provides Western blot results of experiments in which HeLa cells were cotransfected with plasmids encoding FLAG-tagged mAct1 and V5-tagged IL-17RA and were cultured for 24 hours, after which they were incubated for 24 hours with the indicated peptides (200 μM). IL-17RA was immunoprecipitated from the samples with antibody against the V5 tag, and samples were then subjected to Western blotting analysis with the indicated antibodies. FIG. 4D provides Western blot results of experiments in which MEFs expressing IL-17RB were incubated with the indicated peptides (200 μM) for 24 hours after which they were treated with IL-17 or IL-25 and then analyzed by Western blotting with the indicated antibodies. FIG. 4E provides bar graphs showing the results of experiments in which MEFs expressing IL-17RB were incubated with the indicated peptides (200 μM) for 24 hours, after which they were treated with IL-17 or IL-25 for 3 hours. The abundances of Cxcl1 and Il13 mRNAs were then measured by real-time RT-PCR. […]
(§1) Decoy peptides are based on surface-exposed regions of the primary sequence of a protein to mimic a putative interaction interface. […] These decoy peptides were also tagged at their C-termini with fluorescein isothiocyanate (FITC) to enable their cell-penetrating efficiency to be evaluated by flow cytometric sanalysis. […]

For assay [4], the system named is IL-17-mediated expression of Cxcl1. As to the kind of experiment: IL-17-mediated Cxcl1 mRNA expression in MEFs, real-time RT-PCR. To be noted: peptides 200 μM for 24 hours, then IL-17 for 3 hours. The assay is classed as cell-based, mouse. Here is the method: (§2) FIG. 4 provides data showing that a cell-permeable CC′ loop decoy peptide disrupts the interaction between Act1 and IL-17RA and inhibits IL-17R and IL-25R signaling. FIG. 4A provides sequences of Antennapedia homeodomain (Antp) (SEQ ID NO: 11)and decoy peptides (SEQ ID NOS 23-25 and 17, respectively, in order of appearance) with the Antp sequence underlined. FIG. 4B provides flow cytometry results based on experiments in which MEFs expressing IL-17RB were incubated for 2 or 24 hours with the indicated FITC-tagged peptides (200 μM) and were then analyzed by flow cytometry. […] The percentages of FITC-positive cells in the treated samples are shown. […] FIG. 4D provides Western blot results of experiments in which MEFs expressing IL-17RB were incubated with the indicated peptides (200 μM) for 24 hours after which they were treated with IL-17 or IL-25 and then analyzed by Western blotting with the indicated antibodies. […] The abundances of Cxcl1 and Il13 mRNAs were then measured by real-time RT-PCR. […]
as §1
(In general: Real-time PCR tracks product formation cycle by cycle.)

Assay [5] relates to IL-25-mediated expression of Il13. Nature of the assay: IL-25-mediated Il13 mRNA expression in MEFs, real-time RT-PCR. The assay is classed as cell-based, mouse. To be noted: peptides 200 μM for 24 hours, then IL-25 for 3 hours. Here is the method:
as §2, §1

As for “SPKYKQDVEGAESQ [Cins peptide, reference compound]”, the “binding to the IL-17RA SEFIR domain (SPR)” value (from here on “binding”) with IL-17RA SEFIR domain is “but not the Cins peptide, bound to the IL-17RA SEFIR”.

LDEDEHGLHTKY [CC′ loop peptide]: the “binding” value with IL-17RA SEFIR domain is “bound to the IL-17RA SEFIR”.

As for “EDRIRGID (listed as Mus sp.) [peptide derived from the BB′ loop, reference compound]”, in the assay with IL-17RA SEFIR domain, the “binding” value was “did not bind”.

For “ASI peptide: the CC′ loop decoy peptide (SEQ ID NO: 5) (LDEDEHGLHTKY)”, in assay [1], the “white blood cell count in BAL” value is given as “about 10,000 cells/ml”. Besides, the “epidermal thickness and inflammation of ear skin (H&E)” value in assay [2] (day 7) is given as “inhibits IL-17-induced inflammation”. In addition, the “inflammatory gene expression in ear skin (bar graphs)” value in assay [2] (day 7, real-time analysis) is given as “counteracted the inflammatory results of IL-17”.

For “Act1 SEFIR domain BB′ loop peptide: cell-permeable decoy peptide: BB′ loop sequence of Act1 SEFIR domain fused to C-terminus of Antp (DRQIKIWFQNRRMKWKKEDRIRGID) [reference compound]”, the “IL-25-dependent signaling (pIκB, pJNK, pERK, pp38 MAPK)” value in assay [3] is on record as “but not the Act1 SEFIR domain BB′ loop peptide, partly attenuated”. For the same molecule, the “inhibition of IL-17-mediated expression of Cxcl1” value in assay [4] is “no effect”. Further, in assay [5], the “inhibition of IL-25-mediated expression of Il13” value is reported as “no effect”.

B1: recombinant Act1 SEFIR domain: SEFIR domain containing fragment of mouse Act1, residues 391 to 537 (protein)
chain: RKVFITYSMDTAMEVVKFVNFLLVNGFQTAIDIFEDRIRGIDIIKWMERYLRDKTVMIIVAISPKYKQDVEGAESQLDEDEHGLHTKYIHRMMQIEFISQGSMNFRFIPVLFPNAKKEHVPTWLQNTHVYSWPKNKKNILLRLLREE
For B1, the “binding” value with IL-17RA SEFIR domain is reported as “bound”.
